In PubChem BioAssay AID1919004 (Molecular Pharmacology Branch, DTP, NCI, 2023):
Several values for one entry are separate records, joined by “and”; a condition that tells them apart may be missing. Equal values may be shown once. One block for each molecule: values may come before it.

Tested on: 883617-216-R-J1-PDC complex spheroids, growth, % test/control
Test: Anticancer human tumor 883617-216-R-J1-PDC patient-derived bladder carcinoma cell line growth inhibition [AhR]
Details: for viability, T/C: stronger effect = lower value
How it was run: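 Spheroids combined tumor cells with HUVEC endothelial cells and human MSCs as stroma. AhR antagonists were paired with standard or investigational drugs, each dosed in half-log steps down from near clinical Cmax, or from 10 microM where Cmax was unknown.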

[1] = curve of first compound, second compound 0.1 µM
[2] = curve of first compound, second compound 0.316 µM
[3] = curve of first compound, second compound 1 µM
[4] = curve of first compound, second compound 3.16 µM
[5] = curve of first compound, second compound 10 µM
[6] = second compound 0.1 µM, first compound 0.0316 µM
[7] = second compound 0.1 µM, first compound 0.1 µM
[8] = second compound 0.1 µM, first compound 0.316 µM
[9] = second compound 0.1 µM, first compound 1 µM
[10] = second compound 0.1 µM, first compound 3.16 µM
[11] = second compound 0.1 µM, first compound 10 µM
[12] = second compound 0.316 µM, first compound 0.0316 µM
[13] = second compound 0.316 µM, first compound 0.1 µM
[14] = second compound 0.316 µM, first compound 0.316 µM
[15] = second compound 0.316 µM, first compound 1 µM
[16] = second compound 0.316 µM, first compound 3.16 µM
[17] = second compound 0.316 µM, first compound 10 µM
[18] = second compound 1 µM, first compound 0.0316 µM
[19] = second compound 1 µM, first compound 0.1 µM
[20] = second compound 1 µM, first compound 0.316 µM
[21] = second compound 1 µM, first compound 1 µM
[22] = second compound 1 µM, first compound 3.16 µM
[23] = second compound 1 µM, first compound 10 µM
[24] = second compound 3.16 µM, first compound 0.0316 µM
[25] = second compound 3.16 µM, first compound 0.1 µM
[26] = second compound 3.16 µM, first compound 0.316 µM
[27] = second compound 3.16 µM, first compound 1 µM
[28] = second compound 3.16 µM, first compound 3.16 µM
[29] = second compound 3.16 µM, first compound 10 µM
[30] = second compound 10 µM, first compound 0.0316 µM
[31] = second compound 10 µM, first compound 0.1 µM
[32] = second compound 10 µM, first compound 0.316 µM
[33] = second compound 10 µM, first compound 1 µM
[34] = second compound 10 µM, first compound 3.16 µM
[35] = second compound 10 µM, first compound 10 µM
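Further: exposure lasted 7 days after dosing on day 3 of spheroid growth.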

IC50 (curve of compound): 7.23 µM and > 10 µM and 6.07 µM
Structure (SMILES): CC1(C)CCC(CN2CCN(c3ccc(C(=O)NS(=O)(=O)c4ccc(NCC5CCOCC5)c([N+](=O)[O-])c4)c(Oc4cnc5[nH]ccc5c4)c3)CC2)=C(c2ccc(Cl)cc2)C1
viability, T/C (compound 0.0316 µM): 97.3% and 96.7% and 85.8%
viability, T/C (compound 0.1 µM): 105% and 106% and 130%
viability, T/C (compound 0.316 µM): 101% and 98.7% and 110%
viability, T/C (compound 1 µM): 101% and 98.4% and 92.5%
viability, T/C (compound 3.16 µM): 99.6% and 105% and 72.3%
viability, T/C (compound 10 µM): 30.6% and 64.7% and 33.8%

IC50 [1]: 0.155 µM
IC50 [2]: 0.351 µM
IC50 [3]: 0.187 µM
IC50 [4]: 0.18 µM
IC50 [5]: 0.165 µM
Structure (SMILES): O=C(C=Cn1cnc(-c2cc(C(F)(F)F)cc(C(F)(F)F)c2)n1)NNc1cnccn1 + CC(CO)NC(=O)c1cc(-c2ccc(Cl)cc2)nn(-c2cnn(C)c2)c1=O
viability, T/C (second compound 0.1 µM, first compound 0.00949 µM): 93.7%
viability, T/C (second compound 0.1 µM, first compound 0.03 µM): 78.1%
viability, T/C (second compound 0.1 µM, first compound 0.0949 µM): 56.8%
viability, T/C (second compound 0.1 µM, first compound 0.3 µM): 40.4%
viability, T/C (second compound 0.1 µM, first compound 0.949 µM): 34.5%
viability, T/C (second compound 0.1 µM, first compound 3 µM): 29.7%
viability, T/C (second compound 0.316 µM, first compound 0.00949 µM): 109%
viability, T/C (second compound 0.316 µM, first compound 0.03 µM): 79.4%
viability, T/C (second compound 0.316 µM, first compound 0.0949 µM): 71%
viability, T/C (second compound 0.316 µM, first compound 0.3 µM): 50.1%
viability, T/C (second compound 0.316 µM, first compound 0.949 µM): 37.8%
viability, T/C (second compound 0.316 µM, first compound 3 µM): 37.2%
viability, T/C (second compound 1 µM, first compound 0.00949 µM): 60.4%
viability, T/C (second compound 1 µM, first compound 0.03 µM): 76.3%
viability, T/C (second compound 1 µM, first compound 0.0949 µM): 65%
viability, T/C (second compound 1 µM, first compound 0.3 µM): 37.2%
viability, T/C (second compound 1 µM, first compound 0.949 µM): 46.8%
viability, T/C (second compound 1 µM, first compound 3 µM): 34.5%
viability, T/C (second compound 3.16 µM, first compound 0.00949 µM): 65.1%
viability, T/C (second compound 3.16 µM, first compound 0.03 µM): 61.9%
viability, T/C (second compound 3.16 µM, first compound 0.0949 µM): 71.2%
viability, T/C (second compound 3.16 µM, first compound 0.3 µM): 32.4%
viability, T/C (second compound 3.16 µM, first compound 0.949 µM): 50.3%
viability, T/C (second compound 3.16 µM, first compound 3 µM): 29.1%
viability, T/C (second compound 10 µM, first compound 0.00949 µM): 72.3%
viability, T/C (second compound 10 µM, first compound 0.03 µM): 46.9%
viability, T/C (second compound 10 µM, first compound 0.0949 µM): 75.3%
viability, T/C (second compound 10 µM, first compound 0.3 µM): 34.1%
viability, T/C (second compound 10 µM, first compound 0.949 µM): 37.5%
viability, T/C (second compound 10 µM, first compound 3 µM): 24.9%

IC50 [1]: > 10 µM
IC50 [2]: > 10 µM
IC50 [3]: > 10 µM
IC50 [4]: > 10 µM
IC50 [5]: > 10 µM
Structure (SMILES): COc1cc(Nc2ncc3c(n2)-c2ccc(Cl)cc2C(c2c(F)cccc2OC)=NC3)ccc1C(=O)O + Cc1ccccc1N=Nc1ccc(NC(=O)c2ccnn2C)c(C)c1
viability, T/C [6]: 83.3%
viability, T/C [7]: 78.7%
viability, T/C [8]: 74.5%
viability, T/C [9]: 63.2%
viability, T/C [10]: 71.1%
viability, T/C [11]: 63.6%
viability, T/C [12]: 72.7%
viability, T/C [13]: 83.1%
viability, T/C [14]: 64.6%
viability, T/C [15]: 62.6%
viability, T/C [16]: 66.3%
viability, T/C [17]: 63.2%
viability, T/C [18]: 73.9%
viability, T/C [19]: 73.7%
viability, T/C [20]: 67.2%
viability, T/C [21]: 72%
viability, T/C [22]: 63.7%
viability, T/C [23]: 53.7%
viability, T/C [24]: 67.4%
viability, T/C [25]: 76.3%
viability, T/C [26]: 69.6%
viability, T/C [27]: 62.1%
viability, T/C [28]: 67%
viability, T/C [29]: 56.4%
viability, T/C [30]: 68.9%
viability, T/C [31]: 67.7%
viability, T/C [32]: 67.8%
viability, T/C [33]: 61.3%
viability, T/C [34]: 58.7%
viability, T/C [35]: 50.8%

IC50 [1]: > 10 µM
IC50 [2]: > 10 µM
IC50 [3]: > 10 µM
IC50 [4]: > 10 µM
IC50 [5]: > 10 µM
Structure (SMILES): CC1(C)CCC(CN2CCN(c3ccc(C(=O)NS(=O)(=O)c4ccc(NCC5CCOCC5)c([N+](=O)[O-])c4)c(Oc4cnc5[nH]ccc5c4)c3)CC2)=C(c2ccc(Cl)cc2)C1 + CC(CO)NC(=O)c1cc(-c2ccc(Cl)cc2)nn(-c2cnn(C)c2)c1=O
viability, T/C [6]: 77%
viability, T/C [7]: 90.8%
viability, T/C [8]: 136%
viability, T/C [9]: 95.4%
viability, T/C [10]: 90.3%
viability, T/C [11]: 59.4%
viability, T/C [12]: 83.2%
viability, T/C [13]: 93.9%
viability, T/C [14]: 102%
viability, T/C [15]: 88.2%
viability, T/C [16]: 96.9%
viability, T/C [17]: 68.5%
viability, T/C [18]: 90.6%
viability, T/C [19]: 114%
viability, T/C [20]: 152%
viability, T/C [21]: 71.4%
viability, T/C [22]: 82.4%
viability, T/C [23]: 78.2%
viability, T/C [24]: 79.5%
viability, T/C [25]: 132%
viability, T/C [26]: 97.1%
viability, T/C [27]: 115%
viability, T/C [28]: 83.4%
viability, T/C [29]: 68.7%
viability, T/C [30]: 91.9%
viability, T/C [31]: 143%
viability, T/C [32]: 171%
viability, T/C [33]: 83.9%
viability, T/C [34]: 122%
viability, T/C [35]: 103%

IC50 [1]: > 10 µM
IC50 [2]: > 10 µM
IC50 [3]: > 10 µM
IC50 [4]: > 10 µM
IC50 [5]: > 10 µM
Structure (SMILES): CC1COCCN1c1cc(C2(S(C)(=N)=O)CC2)nc(-c2ccnc3[nH]ccc23)n1 (configuration not stated) + Cc1ccccc1N=Nc1ccc(NC(=O)c2ccnn2C)c(C)c1
viability, T/C [6]: 97.9%
viability, T/C [7]: 97%
viability, T/C [8]: 88%
viability, T/C [9]: 84.9%
viability, T/C [10]: 70.9%
viability, T/C [11]: 54.6%
viability, T/C [12]: 90.5%
viability, T/C [13]: 93.6%
viability, T/C [14]: 81.2%
viability, T/C [15]: 89.9%
viability, T/C [16]: 82%
viability, T/C [17]: 55.4%
viability, T/C [18]: 87.7%
viability, T/C [19]: 90.9%
viability, T/C [20]: 82.4%
viability, T/C [21]: 84.8%
viability, T/C [22]: 77.1%
viability, T/C [23]: 54.8%
viability, T/C [24]: 86.5%
viability, T/C [25]: 77.6%
viability, T/C [26]: 75%
viability, T/C [27]: 75%
viability, T/C [28]: 61.5%
viability, T/C [29]: 58.8%
viability, T/C [30]: 75.7%
viability, T/C [31]: 81.5%
viability, T/C [32]: 82%
viability, T/C [33]: 77.3%
viability, T/C [34]: 73.5%
viability, T/C [35]: 57.1%

IC50 [1]: 3.57 µM
IC50 [2]: 3.5 µM
IC50 [3]: 0.793 µM
IC50 [4]: 1.51 µM
IC50 [5]: 1.82 µM
Structure (SMILES): O=C(C=Cc1cccc(S(=O)(=O)Nc2ccccc2)c1)NO + CC(CO)NC(=O)c1cc(-c2ccc(Cl)cc2)nn(-c2cnn(C)c2)c1=O
viability, T/C [6]: 88.5%
viability, T/C [7]: 96.9%
viability, T/C [8]: 78.1%
viability, T/C [9]: 86.6%
viability, T/C [10]: 55%
viability, T/C [11]: 7.64%
viability, T/C [12]: 95.2%
viability, T/C [13]: 87.6%
viability, T/C [14]: 85.7%
viability, T/C [15]: 105%
viability, T/C [16]: 54.7%
viability, T/C [17]: 1.72%
viability, T/C [18]: 75.3%
viability, T/C [19]: 62.7%
viability, T/C [20]: 113%
viability, T/C [21]: 41.5%
viability, T/C [22]: 41.6%
viability, T/C [23]: 1.68%
viability, T/C [24]: 104%
viability, T/C [25]: 66%
viability, T/C [26]: 67.6%
viability, T/C [27]: 69.5%
viability, T/C [28]: 36.6%
viability, T/C [29]: 6.34%
viability, T/C [30]: 101%
viability, T/C [31]: 89.5%
viability, T/C [32]: 101%
viability, T/C [33]: 54%
viability, T/C [34]: 40.9%
viability, T/C [35]: 1.34%
